Columns and labels:
IKKε = IKKε (Homo sapiens (Human), UniProt Q14164); assay: IKKε TR-FRET enzymatic assay; type: biochemical; details: TR-FRET, 2×Km ATP; geometric mean of minimum four determinations; read-out: IKKe IC50
hJAK2 = hJAK2 (Homo sapiens (Human), UniProt O60674); assay: hJAK2 LANCE TR-FRET enzymatic assay; type: biochemical; details: read-out: JAK2 IC50
TBK1 = TBK1 (Homo sapiens (Human), UniProt Q9UHD2); assay: TBK1 TR-FRET enzymatic assay;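 also: phosphorylation of a biotinylated Ser/Thr peptide by purified full-length recombinant TBK1, read by TR-FRET after 240 min at 25 °C, IC50 is the geometric mean of at least four runs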
Sequence of TBK1 (Q9UHD2 whole entry): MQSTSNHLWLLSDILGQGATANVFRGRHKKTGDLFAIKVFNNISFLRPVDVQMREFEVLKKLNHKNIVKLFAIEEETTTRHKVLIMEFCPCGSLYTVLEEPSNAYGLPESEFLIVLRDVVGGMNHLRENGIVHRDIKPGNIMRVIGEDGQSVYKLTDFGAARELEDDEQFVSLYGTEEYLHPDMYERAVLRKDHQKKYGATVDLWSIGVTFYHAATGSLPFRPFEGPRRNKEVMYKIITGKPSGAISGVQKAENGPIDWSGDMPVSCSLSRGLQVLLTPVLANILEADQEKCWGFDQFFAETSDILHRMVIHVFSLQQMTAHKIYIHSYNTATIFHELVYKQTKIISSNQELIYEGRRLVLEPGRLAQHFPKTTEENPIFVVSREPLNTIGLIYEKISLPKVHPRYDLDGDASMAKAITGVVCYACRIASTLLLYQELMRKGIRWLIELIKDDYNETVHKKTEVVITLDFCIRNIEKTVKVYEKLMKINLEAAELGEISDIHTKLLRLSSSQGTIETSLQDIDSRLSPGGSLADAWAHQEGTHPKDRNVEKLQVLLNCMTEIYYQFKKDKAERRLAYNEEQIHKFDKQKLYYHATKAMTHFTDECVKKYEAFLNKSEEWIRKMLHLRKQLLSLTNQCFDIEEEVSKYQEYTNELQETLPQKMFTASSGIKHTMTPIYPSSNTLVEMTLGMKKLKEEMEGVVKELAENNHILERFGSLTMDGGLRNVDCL

Sequence of IKKε (Q14164 whole entry): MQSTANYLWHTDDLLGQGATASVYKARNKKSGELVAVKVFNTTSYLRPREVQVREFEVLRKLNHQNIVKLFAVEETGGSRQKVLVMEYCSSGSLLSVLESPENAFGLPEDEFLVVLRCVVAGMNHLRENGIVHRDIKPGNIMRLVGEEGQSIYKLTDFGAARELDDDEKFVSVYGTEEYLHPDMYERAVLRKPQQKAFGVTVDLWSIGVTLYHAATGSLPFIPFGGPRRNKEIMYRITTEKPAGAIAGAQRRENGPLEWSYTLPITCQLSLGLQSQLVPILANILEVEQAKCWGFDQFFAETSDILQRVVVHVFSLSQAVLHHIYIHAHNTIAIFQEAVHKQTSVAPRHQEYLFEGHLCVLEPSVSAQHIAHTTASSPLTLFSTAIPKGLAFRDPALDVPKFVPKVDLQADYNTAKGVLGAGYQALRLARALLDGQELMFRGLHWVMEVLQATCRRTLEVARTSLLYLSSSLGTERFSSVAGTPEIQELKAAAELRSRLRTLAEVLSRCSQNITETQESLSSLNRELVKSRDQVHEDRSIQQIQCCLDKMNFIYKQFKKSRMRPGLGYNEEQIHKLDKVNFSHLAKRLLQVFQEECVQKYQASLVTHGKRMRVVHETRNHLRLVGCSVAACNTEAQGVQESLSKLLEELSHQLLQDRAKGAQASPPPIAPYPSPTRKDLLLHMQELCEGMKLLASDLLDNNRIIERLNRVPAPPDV
Sequence of hJAK2 (O60674 whole entry): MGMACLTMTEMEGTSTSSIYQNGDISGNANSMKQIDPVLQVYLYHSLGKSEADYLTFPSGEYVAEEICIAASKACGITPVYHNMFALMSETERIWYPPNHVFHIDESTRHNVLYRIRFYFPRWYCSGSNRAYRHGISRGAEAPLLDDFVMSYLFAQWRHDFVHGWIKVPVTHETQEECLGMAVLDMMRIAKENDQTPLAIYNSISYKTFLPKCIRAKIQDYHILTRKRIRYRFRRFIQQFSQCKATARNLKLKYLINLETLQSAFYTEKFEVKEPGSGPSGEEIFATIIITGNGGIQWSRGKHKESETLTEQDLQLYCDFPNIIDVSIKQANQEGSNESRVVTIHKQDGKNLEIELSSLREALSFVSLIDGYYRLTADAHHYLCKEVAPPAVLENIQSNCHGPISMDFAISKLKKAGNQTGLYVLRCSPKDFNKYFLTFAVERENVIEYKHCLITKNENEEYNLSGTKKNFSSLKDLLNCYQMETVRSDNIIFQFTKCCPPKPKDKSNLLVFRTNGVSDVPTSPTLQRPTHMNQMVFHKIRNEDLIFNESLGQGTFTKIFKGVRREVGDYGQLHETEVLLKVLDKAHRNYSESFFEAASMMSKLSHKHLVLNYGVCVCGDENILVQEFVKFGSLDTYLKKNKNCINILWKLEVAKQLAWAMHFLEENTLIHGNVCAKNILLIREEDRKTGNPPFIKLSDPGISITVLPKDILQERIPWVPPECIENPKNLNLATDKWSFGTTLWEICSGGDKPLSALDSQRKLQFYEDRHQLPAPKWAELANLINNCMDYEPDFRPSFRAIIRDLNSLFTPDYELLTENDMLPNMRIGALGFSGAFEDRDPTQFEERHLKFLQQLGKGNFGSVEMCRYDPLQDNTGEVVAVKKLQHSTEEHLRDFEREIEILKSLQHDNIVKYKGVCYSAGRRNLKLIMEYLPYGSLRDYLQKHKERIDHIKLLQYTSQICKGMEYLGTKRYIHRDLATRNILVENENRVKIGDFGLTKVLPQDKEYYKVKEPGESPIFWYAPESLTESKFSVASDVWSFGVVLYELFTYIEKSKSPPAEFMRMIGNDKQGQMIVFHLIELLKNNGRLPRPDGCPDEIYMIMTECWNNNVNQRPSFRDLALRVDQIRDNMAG

Row | SMILES | IC50 (IKKε) | IC50 (hJAK2) | IC50 (TBK1)
1 | Cc1c(Nc2ncnc(-c3ccc(O[C@H]4CCN(C(=O)[C@H](C)O)C[C@H]4F)c(C#N)c3)n2)cnn1C [Example 566, 5-(4-((1,5-dimethyl-1H-pyrazol-4-yl)amino)-1,3,5-triazin-2-yl)-2-(((3R,4S)-3-fluoro-1-((S)-2-hydroxypropanoyl)piperidin-4-yl)oxy)benzonitrile] | 33 nM | ≥ 1000 nM | 14 nM
2 | Cc1c(Nc2ncnc(-c3ccc(O[C@H]4CCN(C(=O)[C@@H](O)CO)C[C@H]4F)c(C#N)c3)n2)cnn1C [Example 567, 2-(((3R,4S)-1-((S)-2,3-dihydroxypropanoyl)-3-fluoropiperidin-4-yl)oxy)-5-(4-((1,5-dimethyl-1H-pyrazol-4-yl)amino)-1,3,5-triazin-2-yl)benzonitrile] | 7 nM | ≥ 1000 nM | 3 nM
3 | CCn1cc(Nc2ncnc(-c3ccc(O[C@H]4CCN(C(=O)[C@H](C)O)C[C@H]4F)c(C#N)c3)n2)c(C)n1 [Example 568, 5-(4-((1-ethyl-3-methyl-1H-pyrazol-4-yl)amino)-1,3,5-triazin-2-yl)-2-(((3R,4S)-3-fluoro-1-((S)-2-hydroxypropanoyl)piperidin-4-yl)oxy)benzonitrile] | 21 nM | ≥ 1000 nM | 9 nM
4 | CCn1cc(Nc2ncnc(-c3ccc(O[C@H]4CCN(C(=O)CO)C[C@H]4F)c(C#N)c3)n2)c(C)n1 [Example 569, 5-(4-((1-ethyl-3-methyl-1H-pyrazol-4-yl)amino)-1,3,5-triazin-2-yl)-2-(((3R,4S)-3-fluoro-1-(2-hydroxyacetyl)piperidin-4-yl)oxy)benzonitrile] | 6 nM | ≥ 1000 nM | 4 nM
5 | Cc1ncc(Nc2ncnc(-c3ccc(O[C@H]4CCN(C(=O)[C@H](C)O)C[C@H]4F)c(C#N)c3)n2)s1 [Example 570, 2-(((3R,4S)-3-fluoro-1-((S)-2-hydroxypropanoyl)piperidin-4-yl)oxy)-5-(4-((2-methylthiazol-5-yl)amino)-1,3,5-triazin-2-yl)benzonitrile] | 4 nM | ≥ 1000 nM | 3 nM
6 | Cc1nc(C)c(Nc2ncnc(-c3ccc(O[C@H]4CCN(C(=O)[C@H](C)O)C[C@H]4F)c(C#N)c3)n2)s1 [Example 571, 5-(4-((2,4-dimethylthiazol-5-yl)amino)-1,3,5-triazin-2-yl)-2-(((3R,4S)-3-fluoro-1-((S)-2-hydroxypropanoyl)piperidin-4-yl)oxy)benzonitrile] | 11 nM | ≥ 1000 nM | 6 nM
7 | C[C@H](O)C(=O)N1CC[C@H](Oc2ccc(-c3ncnc(Nc4scnc4CO)n3)cc2C#N)[C@H](F)C1 [Example 572, 2-(((3R,4S)-3-fluoro-1-((S)-2-hydroxypropanoyl)piperidin-4-yl)oxy)-5-(4-((4-(hydroxymethyl)thiazol-5-yl)amino)-1,3,5-triazin-2-yl)benzonitrile] | 21 nM | ≥ 1000 nM | 36 nM
8 | C[C@H](O)CN1CCN(c2ccc(Nc3ncnc(-c4ccc(O[C@H]5CCN(C(=O)[C@H](C)O)C[C@H]5F)c(C#N)c4)n3)cc2)CC1 [Example 573, 2-(((3R,4S)-3-fluoro-1-((S)-2-hydroxypropanoyl)piperidin-4-yl)oxy)-5-(4-((4-(4-((S)-2-hydroxypropyl)piperazin-1-yl)phenyl)amino)-1,3,5-triazin-2-yl)benzonitrile] | 1 nM | 969 nM | 3 nM
9 | CC(C)n1cc(Nc2ncnc(-c3ccc(O[C@H]4CCN(C(=O)[C@@H](O)CO)C[C@H]4F)c(C#N)c3)n2)cn1 [Example 574, 2-(((3R,4S)-1-((S)-2,3-dihydroxypropanoyl)-3-fluoropiperidin-4-yl)oxy)-5-(4-((1-isopropyl-1H-pyrazol-4-yl)amino)-1,3,5-triazin-2-yl)benzonitrile] | 2 nM | 354 nM | 2 nM
10 | N#Cc1cc(-c2ncnc(Nc3ccc(N4CCN(C5COC5)CC4)cc3)n2)ccc1O[C@H]1CCN(C(=O)C(O)CO)CC1(F)F (stereo partly drawn) [Example 580, 2-(((4S)-1-(2,3-dihydroxypropanoyl)-3,3-difluoropiperidin-4-yl)oxy)-5-(4-((4-(4-(oxetan-3-yl)piperazin-1-yl)phenyl)amino)-1,3,5-triazin-2-yl)benzonitrile] | 1 nM | 165 nM | 2 nM
11 | N#Cc1cc(-c2ncnc(Nc3ccc(N4CCN(C5COC5)CC4)cc3)n2)ccc1O[C@H]1CCN(C(=O)[C@@H](O)CO)CC1(F)F [Example 581, 2-(((S)-1-((S)-2,3-dihydroxypropanoyl)-3,3-difluoropiperidin-4-yl)oxy)-5-(4-((4-(4-(oxetan-3-yl)piperazin-1-yl)phenyl)amino)-1,3,5-triazin-2-yl)benzonitrile] | 1 nM | 86 nM | 2 nM
12 | N#Cc1cc(-c2ncnc(Nc3ccc(N4CCN(C5COC5)CC4)cc3)n2)ccc1O[C@H]1CCN(C(=O)[C@H](O)CO)CC1(F)F [Example 582, 2-(((S)-1-((R)-2,3-dihydroxypropanoyl)-3,3-difluoropiperidin-4-yl)oxy)-5-(4-((4-(4-(oxetan-3-yl)piperazin-1-yl)phenyl)amino)-1,3,5-triazin-2-yl)benzonitrile] | 1 nM | 98 nM | 2 nM
13 | C[C@H](O)C(=O)N1CC[C@H](Oc2ccc(-c3ncnc(Nc4ccc(N5CCN(CCO)CC5)cc4)n3)cc2C#N)[C@H](F)C1 [Example 583, 2-(((3R,4S)-3-fluoro-1-((S)-2-hydroxypropanoyl)piperidin-4-yl)oxy)-5-(4-((4-(4-(2-hydroxyethyl)piperazin-1-yl)phenyl)amino)-1,3,5-triazin-2-yl)benzonitrile] | 1 nM | 479 nM | 2 nM

Further lines, results first:

Row | IC50 (IKKε) | IC50 (hJAK2) | IC50 (TBK1) | SMILES
14 | 1 nM | 433 nM | 2 nM | N#Cc1cc(-c2ncnc(Nc3ccc(N4CCN(C5COC5)CC4)cc3)n2)ccc1O[C@H]1CCN(C(=O)[C@@H](O)CO)C[C@H]1F [Example 584, 2-(((3R,4S)-1-((S)-2,3-dihydroxypropanoyl)-3-fluoropiperidin-4-yl)oxy)-5-(4-((4-(4-(oxetan-3-yl)piperazin-1-yl)phenyl)amino)-1,3,5-triazin-2-yl)benzonitrile]
15 | 3 nM | 294 nM | 2 nM | N#Cc1cc(-c2ncnc(Nc3ccc(N4CCN(C5COC5)CC4)cc3)n2)ccc1O[C@H]1CCN(C(=O)[C@H](O)CO)C[C@H]1F [Example 585, 2-(((3R,4S)-1-((R)-2,3-dihydroxypropanoyl)-3-fluoropiperidin-4-yl)oxy)-5-(4-((4-(4-(oxetan-3-yl)piperazin-1-yl)phenyl)amino)-1,3,5-triazin-2-yl)benzonitrile]
16 | 28 nM | 212 nM | 11 nM | CC(C#N)C(=O)N1CC[C@H](Oc2ccc(-c3ncnc(Nc4ccc(N5CCN(C6COC6)CC5)cc4)n3)cc2C#N)[C@H](F)C1 (stereo partly drawn) [Example 586, 2-(((3R,4S)-1-(2-cyanopropanoyl)-3-fluoropiperidin-4-yl)oxy)-5-(4-((4-(4-(oxetan-3-yl)piperazin-1-yl)phenyl)amino)-1,3,5-triazin-2-yl)benzonitrile]
17 | 49 nM | 235 nM | 30 nM | N#Cc1cc(-c2ncnc(Nc3ccc(N4CCN(C5COC5)CC4)cc3)n2)ccc1O[C@H]1CCN(C(=O)C2(C#N)CC2)C[C@H]1F [Example 587, 2-(((3R,4S)-1-(1-cyanocyclopropanecarbonyl)-3-fluoropiperidin-4-yl)oxy)-5-(4-((4-(4-(oxetan-3-yl)piperazin-1-yl)phenyl)amino)-1,3,5-triazin-2-yl)benzonitrile]
18 | 49 nM | ≥ 1000 nM | 18 nM | N#Cc1cc(-c2ncnc(Nc3ccc(N4CCN(C5COC5)CC4)cc3)n2)ccc1O[C@H]1CCN(C(=O)[C@@H]2C[C@H](O)CN2)C[C@H]1F [Example 588, 2-(((3R,4S)-3-fluoro-1-((2S,4S)-4-hydroxypyrrolidine-2-carbonyl)piperidin-4-yl)oxy)-5-(4-((4-(4-(oxetan-3-yl)piperazin-1-yl)phenyl)amino)-1,3,5-triazin-2-yl)benzonitrile]
19 | 28 nM | 855 nM | 18 nM | N#Cc1cc(-c2ncnc(Nc3ccc(N4CCN(C5COC5)CC4)cc3)n2)ccc1O[C@H]1CCN(C(=O)[C@@H]2C[C@@H](O)CN2)C[C@H]1F [Example 589, 2-(((3R,4S)-3-fluoro-1-((2S,4R)-4-hydroxypyrrolidine-2-carbonyl)piperidin-4-yl)oxy)-5-(4-((4-(4-(oxetan-3-yl)piperazin-1-yl)phenyl)amino)-1,3,5-triazin-2-yl)benzonitrile]
20 | ≥ 1000 nM | ≥ 1000 nM | 528 nM | C[C@H](O)C(=O)N1CC[C@H](COc2cc(C#N)cc(-c3ncnc(Nc4ccc(N5CCN(C6COC6)CC5)cc4)n3)c2)C1 [Example 590, 3-(((S)-1-((S)-2-hydroxypropanoyl)pyrrolidin-3-yl)methoxy)-5-(4-((4-(4-(oxetan-3-yl)piperazin-1-yl)phenyl)amino)-1,3,5-triazin-2-yl)benzonitrile]
21 | ≥ 1000 nM | 658 nM | 474 nM | N#Cc1cc(OC[C@H]2CCN(C(=O)CO)C2)cc(-c2ncnc(Nc3ccc(N4CCN(C5COC5)CC4)cc3)n2)c1 [Example 591, (S)-3-((1-(2-hydroxyacetyl)pyrrolidin-3-yl)methoxy)-5-(4-((4-(4-(oxetan-3-yl)piperazin-1-yl)phenyl)amino)-1,3,5-triazin-2-yl)benzonitrile]
22 | 23 nM | 239 nM | 21 nM | N#Cc1cc(-c2ncnc(Nc3ccc(N4CCN(C5COC5)CC4)cc3)n2)ccc1OCCn1ccnc1 [Example 592, 2-(2-(1H-imidazol-1-yl)ethoxy)-5-(4-((4-(4-(oxetan-3-yl)piperazin-1-yl)phenyl)amino)-1,3,5-triazin-2-yl)benzonitrile]

Source: patent publication US10040781B2, “Tank-binding kinase inhibitor compounds” (Gilead Sciences, Inc., priority 2014, dated 2018)
